Reference: patent publication US7811778B2, “Methods of screening for gastrointestinal cancer” (Vanderbilt University, priority 2006, dated 2010)
Where “and” joins values, the source holds several entries; their conditions need not be identical. Identical values can stand only once. Entries after “also recorded” stand apart in the source; their conditions may differ.

Columns and labels:
fundic mucosa = test: Immunohistochemistry / immunofluorescence of stomachs of DMP-777-treated mice; assay type: in vivo, gastrin-deficient mice
Source text: Excised stomachs from Gastrin-deficient mice treated with DMP-777 or untreated controls embedded in paraffin were used for immunohistochemistry analysis Stomachs from C57BL/6 wild-type mice and sections from H. felis-infected C57BL/6 mice (infected for 6 months) were also examined with staining as a comparison. For immunohistochemistry, except for Mist1 staining, deparaffinized sections were pretreated with antigen retrieval using Target Retrieval solution (DakoCytomation, Glostrup, Denmark) at 120° C. for 15 minutes, followed by immediate cooling using iced water. For immunohistochemistry of Mist1, Trilogy antigen retrieval solution (Cell Marque, Austin. Tex.) was used during the antigen retrieval procedure. Sections were treated with 2% blocking serum and then incubated with the primary antibody overnight at 4° C. Immunostaining was performed with the following primary antibodies; murine monoclonal immunoglobulin M (IgM) anti-trefoil factor family 2 (TFF2, a gift from Sir Nicholas Wright, Cancer Research UK; 1:1000); rabbit anti-Mist1 (1:2000); murine monoclonal anti-H/K-ATPase (a gift from Dr. Adam J. Smolka, Medical University of South Carolina; 1:100,000); rabbit anti-HE4 (1:2000); rabbit anti-intrinsic factor (a gift from Dr. David Alpers, Washington University, St. Louis; 1:2000);, goat anti-Intrinsic factor (1:2000): rabbit anti-MCM3 (1:2000); rat monoclonal anti-Ki67 (TEC-3, DakoCytomation; 1:200).
For immunofluorescence analysis, Cy3-goat anti-mouse IgM antibody, Cy5-goat anti-mouse IgG antibody (Jackson ImmunoResearch, West Grove, Pa.) and Alexa488 goat anti-rabbit IgG (Invitrogen, Carlsbad, Calif.) were used. PROLONG® Gold Antifade Reagent with DAPI (Invitrogen) was used for nuclear counterstain and mounting medium.
For immunohistochemistry with detection with diaminobenzidine, the sections were incubated with biotinylated secondary antibody followed by horseradish peroxidase-conjugated streptavidin. Chromogen was developed with diaminobenzidine (Biogenex, San Ramon, Calif.). For immunohistochemistry with alkaline-phosphatase detection, the sections were incubated with biotinylated secondary antibody followed by alkaline-phosphatase-conjugated avidin-biotin complex. Chromogen was developed with VECTOR® Red Substrate (Vector Laboratories, Burlingame, Calif.). All sections were counterstained with Gill's hematoxylin.
Sections were viewed and photographed on Zeiss AXIOPHOT® microscope equipped with an AXIOVISION® digital imaging system (Zeiss) or FLUOVIEW® FV1000 confocal microscope system (Olympus).

emerging SPEM cells = test: Quantitative PCR of transcripts in microdissected cells during emergence of SPEM; assay type: in vivo, gastrin-deficient mice
Method: Total RNA isolated from laser-capture microdissected cell collections from the stomachs of normal and DMP-777 1-day-treated and DMP-777 3-day—treated gastrin-deficient mice was analyzed by quantitative PCR assays. Reverse transcription from each total RNA sample was performed using random primers and Quantiscript Reverse transcriptase (Qiagen. Valencia, Calif.), for 30 minutes at 42° C. Quantitative real-time PCR was performed with a 3-step method using the Bio-Rad iCycler iQ real-time PCR detection system (Bio-Rad Laboratories, Hercules, Calif.). Each reaction was carried out in a 50 μL mixture consisting of QuantiTect SYBR Green PCO Master Mix (Qiagen), and 1 μL of template cDNA. The PCR conditions for quantitative real-time PCR were; 95° C. for 10 minutes 45 cycles of 94° C. for 15 seconds, 60° C. for 30 seconds, and 72° C. for 30 seconds. Quantitation of cDNA template in each sample was determined using the comparative threshold cycle (CT) method using GAPDH as a control, as described previously (Nomura S, Baxter S, Yamaguchi T, Leys C, Vartapetian A B, Fox J G, Lee J R, Wang T C, Goldenring J R. Relationship of spasmolytic polypeptide expressing metaplasia (SPEM) to pre-neoplasia in H. felis-infected mice. Gastroenterology 2004; 127:582-594). Statistical comparisons of the mean ΔΔCT between groups were determined using the Mann-Whitney U Test
However, by quantitative PCR assays, TFF2 levels were elevated greater than 7-fold in emerging SPEM from DMP-777 treated animals (FIG. 5).

parietal cells = conditions: cited from earlier work
[1] = test system: chief cells / SPEM cells at the bases of fundic glands; test: Electron microscopy of gastric fundic region; assay type: in vivo; conditions: gastrin-deficient mice treated for 3 days with DMP-777
Method: Fresh specimens from the gastric fundic region of untreated controls and 3-day DMP-777 treated gastrin-deficient mice fixed for 2.5 hour on ice in 2.5% glutaraldehyde, 0.1 M Cacodytate Buffer in PBS. The samples were fixed overnight at 4° C. in 1% osmium tetroxide (OSO4) and 0.1M Cacodylate Buffer. Subsequently, the samples were subjected to an ethanol dehydration series and embedded in Spurrs resin. 50˜100 nm thin sections were cut and collected on 200-mesh, formvar-coated copper grids. After drying overnight, the grids were contrast stained with 2% depleted Uranyl Acetate (UA) and then stained with saturated lead citrate. Samples were examined on a Philips CM12 Electron Microscope.

[2] = microdissected cells, DMP-777 1 or 3 days vs untreated chief cells

For `CCC[C@@H](NC(=O)N1C(=O)C(CC)(CC)[C@@H]1Oc1ccc(C(=O)N2CCN(C)CC2)cc1)c1ccc2c(c1)OCO2` [DMP-777], the “quantification of Ki-67 staining (FIG. 6F)” value (fundic mucosa; 1 to 14 days of treatment, *p<0.05 at 7 days) was “smaller increase, which was only significant at 7 days of treatment”, the “HE4 expression in SPEM cells at the bases of fundic glands (immunostaining)” value (fundic mucosa; DMP-777 treated gastrin-deficient mice) was “prominent up-regulation” and the “TACC3 expression in cells at the bases of gastric glands” value (fundic mucosa; after only one day of DMP-777 treatment) was “TACC3 expression was evident”. For the same molecule, the “HE4 immunoreactivity in SPEM” value (fundic mucosa; after only one day of treatment) was “markedly increased”, the “quantification of MCM3 staining (FIG. 6F)” value (fundic mucosa; days 3-14 of treatment, **p<0.01, ***p<0.001) was “significant increase” and the “TFF2 and intrinsic factor staining in cells at the bases of fundic glands” value (fundic mucosa; gastrin deficient mice treated for 3 days with DMP-777) was “SPEM cells expressing two separate populations of TFF2 and intrinsic factor staining granules were present”. For the same molecule, the “Ki67 positive cell numbers” value (fundic mucosa; gastrin-deficient mice after DMP-777 treatment) was “only a small increase”, the “number of Mist1 immunoreactive cells at the bases of glands” value (fundic mucosa; gastrin-deficient mice treated with DMP-777 for three days) was “decreased” and the “number of MCM3 positive cells” value (fundic mucosa; gastrin-deficient mice, after 1 day of DMP-777, remained elevated through 14 days) was “increased”. The “TACC3 expression in SPEM cells at the bases of fundic glands” value (fundic mucosa; treatment with DMP-777 for 3 days) was “strongly up-regulated”, the “TFF2 levels by quantitative PCR” value (emerging SPEM cells; emerging SPEM from DMP-777 treated animals vs untreated chief cells) was “greater than 7 fold” and the “G1/S associated transcripts MCM3, MCM5, MCM7 and ATF3 by quantitative PCR” value (emerging SPEM cells; [2]) was “up-regulation of G1/associated transcripts was confirmed”. For the same molecule, the “ST3Gal6 transcript by quantitative PCR” value (emerging SPEM cells; [2]) was “down-regulation ST3Gal6 was confirmed”, the “transcripts for putative soluble mediators HE4 and IL1RN by quantitative PCR” value (emerging SPEM cells; [2]) was “up-regulation of transcripts for putative soluble mediators was also confirmed” and the inflammatory infiltrate (parietal cells; DMP-777 treated animals) was “absence of significant inflammatory infiltrate”. For the same molecule, the “induction of SPEM in gastrin-deficient (knockout) mice” value (parietal cells; gastrin knockout mice) was “rapid induction of metaplasia after only one day of DMP-777 treatment; also recorded: develop SPEM after only one dose of DMP-777; also recorded: develop SPEM after only a single dose of DMP-777”, the “surface cell (foveolar) hyperplasia in response to DMP-777” value (parietal cells; gastrin knockout mice) was “do not develop surface cell hyperplasia” and the “cells expressing both intrinsic factor and TFF2 (dual expressing cells)” value (parietal cells; gastrin-deficient mice, after only one day of treatment) was “rapid increase in dual expressing cells”. For the same molecule, the “loss of parietal cells” value (parietal cells; mice or rats, high doses of oral DMP-777 (>200 mg/kg/d), three days of administration) was “rapid loss of parietal cells”, the “time of oxyntic atrophy until SPEM develops in the fundus” value (parietal cells; mice or rats, oral DMP-777 >200 mg/kg/d) was 7 to 10 days and the dysplastic lesions (parietal cells; mice or rats, prolonged administration of drug for up to a year) was “no dysplastic lesions are ever observed”. The “time to loss of acid-secreting parietal cells” value (parietal cells; rodents) was “within one to three days”, the “days of treatment required for SPEM in wild type C57BL/6 mice” value (parietal cells; wild type C57BL/6 mice) was 7 to 10 days and 10 to 14 days and the “granule morphology of SPEM cells at the bases of fundic glands (electron microscopy)” value [1] was “heterogeneous set of granule morphologies”. For the same molecule, the “morphological evidence of apoptosis (electron microscopy)” value [1] was “no morphological evidence of apoptosis”.
